Reference: US11021467B2, “Phosphatidylinositol 3-kinase inhibitors” (Gilead Sciences, Inc., priority 2014, dated 2021)

Legend:
Assay in all cases: TR-FRET enzymatic activity assay against PI3K isoforms
Type in all cases: biochemical
PI3Kβ = PI3Kβ (Homo sapiens (Human), UniProt P42338); details: PI3Kβ, TR-FRET, 2×Km ATP, 30 minutes at 25° C.
Excerpt: (§1) The compounds of formula (I) were characterized for their enzymatic activity against the PI3K isoforms. […] TR-FRET monitored the formation of 3,4,5-inositol triphosphate molecule that competed with fluorescently labeled PIP3 for binding to the GRP-1 pleckstrin homology domain protein.

PI3Kγ = PI3Kγ (Homo sapiens (Human), UniProt P48736); details: 2×Km ATP, 30 minutes at 25° C.
PI3Kγ, sequence (P48736 whole entry): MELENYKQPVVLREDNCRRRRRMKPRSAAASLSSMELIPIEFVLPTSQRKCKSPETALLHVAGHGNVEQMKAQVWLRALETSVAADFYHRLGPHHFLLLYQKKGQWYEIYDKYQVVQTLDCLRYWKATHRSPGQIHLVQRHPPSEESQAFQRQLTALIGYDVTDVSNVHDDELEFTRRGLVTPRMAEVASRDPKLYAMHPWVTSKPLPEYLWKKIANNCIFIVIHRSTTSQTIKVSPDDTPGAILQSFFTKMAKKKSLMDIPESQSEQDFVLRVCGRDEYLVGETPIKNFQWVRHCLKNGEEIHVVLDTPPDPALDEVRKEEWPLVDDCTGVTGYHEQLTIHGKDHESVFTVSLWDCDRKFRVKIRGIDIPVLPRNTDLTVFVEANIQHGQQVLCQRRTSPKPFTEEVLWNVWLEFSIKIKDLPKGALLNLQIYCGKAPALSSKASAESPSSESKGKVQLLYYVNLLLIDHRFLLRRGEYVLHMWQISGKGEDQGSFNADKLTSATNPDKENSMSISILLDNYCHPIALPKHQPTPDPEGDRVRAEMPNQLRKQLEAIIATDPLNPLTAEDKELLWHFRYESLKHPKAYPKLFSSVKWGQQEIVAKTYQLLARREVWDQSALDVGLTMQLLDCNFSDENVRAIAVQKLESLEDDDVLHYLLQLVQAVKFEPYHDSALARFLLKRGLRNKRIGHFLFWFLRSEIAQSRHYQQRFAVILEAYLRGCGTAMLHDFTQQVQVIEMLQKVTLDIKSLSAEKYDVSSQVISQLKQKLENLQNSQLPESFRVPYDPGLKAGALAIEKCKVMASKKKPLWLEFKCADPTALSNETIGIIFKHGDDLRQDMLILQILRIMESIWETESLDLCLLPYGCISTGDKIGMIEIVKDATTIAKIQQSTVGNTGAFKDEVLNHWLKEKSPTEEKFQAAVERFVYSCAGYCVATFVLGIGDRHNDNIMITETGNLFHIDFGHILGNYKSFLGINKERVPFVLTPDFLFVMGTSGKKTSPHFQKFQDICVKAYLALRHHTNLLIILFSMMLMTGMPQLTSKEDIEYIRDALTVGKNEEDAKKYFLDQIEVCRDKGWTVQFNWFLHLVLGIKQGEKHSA
Excerpt: as §1

PI3Kδ = PI3Kδ (Homo sapiens (Human), UniProt O00329); details: 2×Km ATP, 30 minutes at 25° C.
PI3Kδ, sequence (O00329 whole entry): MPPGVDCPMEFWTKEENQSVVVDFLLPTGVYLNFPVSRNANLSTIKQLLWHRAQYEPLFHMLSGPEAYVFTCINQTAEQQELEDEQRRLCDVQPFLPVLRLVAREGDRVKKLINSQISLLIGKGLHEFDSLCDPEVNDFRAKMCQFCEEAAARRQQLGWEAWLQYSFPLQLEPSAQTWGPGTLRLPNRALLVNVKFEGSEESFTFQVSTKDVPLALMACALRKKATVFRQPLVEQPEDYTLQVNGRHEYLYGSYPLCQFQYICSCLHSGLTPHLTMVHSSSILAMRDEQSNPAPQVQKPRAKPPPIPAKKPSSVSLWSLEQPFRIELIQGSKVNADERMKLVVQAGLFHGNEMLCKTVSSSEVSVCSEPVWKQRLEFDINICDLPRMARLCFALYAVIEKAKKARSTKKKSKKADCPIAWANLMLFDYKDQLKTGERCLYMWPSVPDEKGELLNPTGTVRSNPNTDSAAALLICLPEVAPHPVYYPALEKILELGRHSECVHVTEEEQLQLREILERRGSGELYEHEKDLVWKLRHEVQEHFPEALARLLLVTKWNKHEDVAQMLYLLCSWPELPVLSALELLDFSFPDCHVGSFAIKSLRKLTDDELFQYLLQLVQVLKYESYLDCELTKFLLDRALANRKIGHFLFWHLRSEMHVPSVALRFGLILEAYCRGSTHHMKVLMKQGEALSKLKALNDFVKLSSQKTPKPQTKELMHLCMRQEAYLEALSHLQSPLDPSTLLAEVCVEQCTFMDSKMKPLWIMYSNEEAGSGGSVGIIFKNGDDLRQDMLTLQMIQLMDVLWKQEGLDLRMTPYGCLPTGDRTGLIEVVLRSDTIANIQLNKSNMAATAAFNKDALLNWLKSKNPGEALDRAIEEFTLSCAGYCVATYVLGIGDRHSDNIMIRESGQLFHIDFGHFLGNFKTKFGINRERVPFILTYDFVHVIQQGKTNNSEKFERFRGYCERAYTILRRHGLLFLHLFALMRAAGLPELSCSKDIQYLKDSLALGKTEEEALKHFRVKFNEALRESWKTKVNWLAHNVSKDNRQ
PI3Kδ, sequence (P27986 whole entry partner): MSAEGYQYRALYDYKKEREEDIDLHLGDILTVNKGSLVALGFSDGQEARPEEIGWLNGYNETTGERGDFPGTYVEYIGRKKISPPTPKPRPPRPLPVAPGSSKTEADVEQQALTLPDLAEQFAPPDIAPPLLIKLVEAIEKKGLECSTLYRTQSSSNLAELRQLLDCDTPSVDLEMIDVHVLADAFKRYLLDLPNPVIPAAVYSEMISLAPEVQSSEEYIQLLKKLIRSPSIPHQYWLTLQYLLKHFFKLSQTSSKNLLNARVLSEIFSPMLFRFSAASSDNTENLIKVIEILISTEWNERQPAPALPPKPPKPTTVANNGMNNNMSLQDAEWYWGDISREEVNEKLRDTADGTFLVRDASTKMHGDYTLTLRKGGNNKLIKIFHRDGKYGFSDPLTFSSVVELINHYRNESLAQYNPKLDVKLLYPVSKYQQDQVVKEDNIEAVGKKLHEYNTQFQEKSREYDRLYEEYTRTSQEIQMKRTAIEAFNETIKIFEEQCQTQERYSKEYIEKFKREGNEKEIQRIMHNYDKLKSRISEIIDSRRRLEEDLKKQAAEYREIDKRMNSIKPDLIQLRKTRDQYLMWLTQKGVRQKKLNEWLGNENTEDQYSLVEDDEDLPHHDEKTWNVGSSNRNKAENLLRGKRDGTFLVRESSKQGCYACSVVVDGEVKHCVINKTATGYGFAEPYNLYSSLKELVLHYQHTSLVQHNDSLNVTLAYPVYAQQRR
Excerpt: as §1

PI3Kβ, sequence (P42338 whole entry, the tested form may be a part, canonical isoform): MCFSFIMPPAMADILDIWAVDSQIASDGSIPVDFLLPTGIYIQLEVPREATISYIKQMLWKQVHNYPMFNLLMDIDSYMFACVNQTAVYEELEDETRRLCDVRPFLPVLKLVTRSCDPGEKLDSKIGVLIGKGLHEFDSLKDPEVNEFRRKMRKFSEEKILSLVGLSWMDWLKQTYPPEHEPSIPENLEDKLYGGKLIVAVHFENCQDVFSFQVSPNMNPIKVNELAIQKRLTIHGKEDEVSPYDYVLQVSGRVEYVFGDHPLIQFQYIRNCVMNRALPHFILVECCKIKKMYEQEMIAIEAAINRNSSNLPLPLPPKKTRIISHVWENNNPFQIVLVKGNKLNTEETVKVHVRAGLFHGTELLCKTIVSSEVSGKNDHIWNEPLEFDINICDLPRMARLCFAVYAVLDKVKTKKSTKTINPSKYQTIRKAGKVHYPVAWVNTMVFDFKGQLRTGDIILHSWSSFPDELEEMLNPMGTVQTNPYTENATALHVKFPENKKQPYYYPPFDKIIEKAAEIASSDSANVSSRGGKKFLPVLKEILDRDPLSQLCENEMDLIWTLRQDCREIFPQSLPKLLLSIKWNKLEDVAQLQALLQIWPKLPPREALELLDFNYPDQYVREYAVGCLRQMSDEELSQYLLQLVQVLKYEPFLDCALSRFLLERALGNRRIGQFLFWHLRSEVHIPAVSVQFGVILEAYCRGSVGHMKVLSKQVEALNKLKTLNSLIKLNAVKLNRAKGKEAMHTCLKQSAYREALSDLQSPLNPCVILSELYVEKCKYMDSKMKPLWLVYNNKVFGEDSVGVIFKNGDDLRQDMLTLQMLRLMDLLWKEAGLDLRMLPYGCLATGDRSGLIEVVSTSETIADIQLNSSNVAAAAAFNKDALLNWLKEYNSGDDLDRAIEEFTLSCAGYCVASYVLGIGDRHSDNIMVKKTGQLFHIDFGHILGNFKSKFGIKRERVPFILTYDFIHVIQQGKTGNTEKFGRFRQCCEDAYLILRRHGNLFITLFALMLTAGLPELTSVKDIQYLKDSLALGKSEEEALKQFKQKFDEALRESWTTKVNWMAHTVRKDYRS
PI3Kβ, sequence (P27986 whole entry partner, the tested form may be a part, canonical isoform): as the sequence (P27986 whole entry partner) above

SMILES | IC50 (PI3Kβ) | IC50 (PI3Kγ) | IC50 (PI3Kδ)
C[C@H](Nc1nc(N)nc(N)c1C#N)c1nc2c(Cl)cc(F)cc2c(=O)n1[C@H]1C[C@@H](O)C1 [Compound 99, 2,4-diamino-6-(((S)-1-(8-chloro-6-fluoro-3-((cis)-3-hydroxycyclobutyl)-4-oxo-3,4-dihydroquinazolin-2-yl)ethyl)amino)pyrimidine-5-carbonitrile] | 290 nM | 2400 nM | 9 nM
N#Cc1c(N)nc(N)nc1N[C@H](c1nc2c(Cl)ccc(Cl)c2c(=O)n1[C@H]1C[C@H](O)C1)C1CC1 [Compound 100, 2,4-diamino-6-(((S)-cyclopropyl(5,8-dichloro-3-((trans)-3-hydroxycyclobutyl)-4-oxo-3,4-dihydroquinazolin-2-yl)methyl)amino)pyrimidine-5-carbonitrile] | 44 nM | 2900 nM | 3 nM
C[C@H](Nc1nc(N)nc(N)c1C#N)c1nc2c(Cl)ccc(Cl)c2c(=O)n1[C@H]1C[C@H](O)C1 [Compound 101, 2,4-diamino-6-(((S)-1-(5,8-dichloro-3-((trans)-3-hydroxycyclobutyl)-4-oxo-3,4-dihydroquinazolin-2-yl)ethyl)amino)pyrimidine-5-carbonitrile] | 140 nM | 3200 nM | 12 nM
N#Cc1c(N)nc(N)nc1N[C@H](c1nc2c(Cl)cc(F)cc2c(=O)n1[C@H]1C[C@@H](O)C1)C1CC1 [Compound 102, 2,4-diamino-6-(((S)-(8-chloro-6-fluoro-3-((cis)-3-hydroxycyclobutyl)-4-oxo-3,4-dihydroquinazolin-2-yl)(cyclopropyl)methyl)amino)pyrimidine-5-carbonitrile] | 66 nM | 1100 nM | 2 nM
C[C@H](Nc1nc(N)nc(N)c1C#N)c1nc2c(Cl)ccc(Cl)c2c(=O)n1[C@H]1C[C@@H](O)C1 [Compound 103, 2,4-diamino-6-(((S)-1-(5,8-dichloro-3-((cis)-3-hydroxycyclobutyl)-4-oxo-3,4-dihydroquinazolin-2-yl)ethyl)amino)pyrimidine-5-carbonitrile] | 21 nM | 2600 nM | 5 nM
C[C@H](Nc1nc(N)nc(N)c1C#N)c1nc2cccc(Cl)c2c(=O)n1CCC#N [Compound 104, (S)-2,4-diamino-6-((1-(5-chloro-3-(2-cyanoethyl)-4-oxo-3,4-dihydroquinazolin-2-yl)ethyl)amino)pyrimidine-5-carbonitrile] | 58 nM | 78 nM | 9 nM
COCCCn1c([C@H](C)Nc2ncnc(N)c2C#N)nc2cccc(Cl)c2c1=O [Compound 105, (S)-4-amino-6-((1-(5-chloro-3-(3-methoxypropyl)-4-oxo-3,4-dihydroquinazolin-2-yl)ethyl)amino)pyrimidine-5-carbonitrile] | 820 nM | 8400 nM | 9 nM
COCCCn1c([C@H](C)Nc2ncnc(N)c2C#N)nc2c(Cl)ccc(Cl)c2c1=O [Compound 106, (S)-4-amino-6-((1-(5,8-dichloro-3-(3-methoxypropyl)-4-oxo-3,4-dihydroquinazolin-2-yl)ethyl)amino)pyrimidine-5-carbonitrile] | 590 nM | > 10000 nM | 8 nM
COCCCn1c([C@H](C)Nc2nc(N)nc(N)c2C#N)nc2c(Cl)ccc(Cl)c2c1=O [Compound 107, (S)-2,4-diamino-6-((1-(5,8-dichloro-3-(3-methoxypropyl)-4-oxo-3,4-dihydroquinazolin-2-yl)ethyl)amino)pyrimidine-5-carbonitrile] | 82 nM | 1700 nM | 3 nM
COCCCn1c([C@H](C)Nc2ncnc(N)c2C#N)nc2c(F)ccc(F)c2c1=O [Compound 108, (S)-4-amino-6-((1-(5,8-difluoro-3-(3-methoxypropyl)-4-oxo-3,4-dihydroquinazolin-2-yl)ethyl)amino)pyrimidine-5-carbonitrile] | 2000 nM | ≥ 10000 nM | 39 nM
COCCCn1c([C@H](C)Nc2nc(N)nc(N)c2C#N)nc2c(F)ccc(F)c2c1=O [Compound 109, (S)-2,4-diamino-6-((1-(5,8-difluoro-3-(3-methoxypropyl)-4-oxo-3,4-dihydroquinazolin-2-yl)ethyl)amino)pyrimidine-5-carbonitrile] | 520 nM | 2180 nM | 14 nM
C[C@H](Nc1nc(N)nc(N)c1C#N)c1nc2cccc(Cl)c2c(=O)n1CCCC#N [Compound 110, (S)-2,4-diamino-6-((1-(5-chloro-3-(3-cyanopropyl)-4-oxo-3,4-dihydroquinazolin-2-yl)ethyl)amino)pyrimidine-5-carbonitrile] | 42 nM | 180 nM | 4 nM
C[C@H](Nc1nc(N)nc(N)c1C#N)c1nc2cccc(Cl)c2c(=O)n1CCCS(C)(=O)=O [Compound 111, (S)-2,4-diamino-6-((1-(5-chloro-3-(3-(methylsulfonyl)propyl)-4-oxo-3,4-dihydroquinazolin-2-yl)ethyl)amino)pyrimidine-5-carbonitrile] | 40 nM | 530 nM | 3 nM
N#CCCn1c([C@@H](Nc2nc(N)nc(N)c2C#N)C2CC2)nc2cccc(Cl)c2c1=O [Compound 112, (S)-2,4-diamino-6-(((5-chloro-3-(2-cyanoethyl)-4-oxo-3,4-dihydroquinazolin-2-yl)(cyclopropyl)methyl)amino)pyrimidine-5-carbonitrile] | 8 nM | 62 nM | 3 nM
N#CCCCn1c([C@@H](Nc2nc(N)nc(N)c2C#N)C2CC2)nc2cccc(Cl)c2c1=O [Compound 113, (S)-2,4-diamino-6-(((5-chloro-3-(3-cyanopropyl)-4-oxo-3,4-dihydroquinazolin-2-yl)(cyclopropyl)methyl)amino)pyrimidine-5-carbonitrile] | 17 nM | 59 nM | 1 nM
N#CCCCCn1c([C@@H](Nc2nc(N)nc(N)c2C#N)C2CC2)nc2cccc(Cl)c2c1=O [Compound 114, (S)-2,4-diamino-6-(((5-chloro-3-(4-cyanobutyl)-4-oxo-3,4-dihydroquinazolin-2-yl)(cyclopropyl)methyl)amino)pyrimidine-5-carbonitrile] | 12 nM | 130 nM | 0.8 nM
CC[C@H](Nc1nc(N)nc(N)c1C#N)c1nc2cccc(Cl)c2c(=O)n1CCCC#N [Compound 115, (S)-2,4-diamino-6-((1-(5-chloro-3-(3-cyanopropyl)-4-oxo-3,4-dihydroquinazolin-2-yl)propyl)amino)pyrimidine-5-carbonitrile] | 190 nM | 190 nM | 9 nM
CC[C@H](Nc1nc(N)nc(N)c1C#N)c1nc2cccc(Cl)c2c(=O)n1CCCCC#N [Compound 116, (S)-2,4-diamino-6-((1-(5-chloro-3-(4-cyanobutyl)-4-oxo-3,4-dihydroquinazolin-2-yl)propyl)amino)pyrimidine-5-carbonitrile] | 150 nM | 540 nM | 5 nM
CC[C@H](Nc1nc(N)nc(N)c1C#N)c1nc2cccc(Cl)c2c(=O)n1CCCS(C)(=O)=O [Compound 117, (S)-2,4-diamino-6-((1-(5-chloro-3-(3-(methylsulfonyl)propyl)-4-oxo-3,4-dihydroquinazolin-2-yl)propyl)amino)pyrimidine-5-carbonitrile] | 250 nM | 3000 nM | 21 nM
CS(=O)(=O)CCCn1c([C@@H](Nc2nc(N)nc(N)c2C#N)C2CC2)nc2cccc(Cl)c2c1=O [Compound 118, (S)-2,4-diamino-6-(((5-chloro-3-(3-(methylsulfonyl)propyl)-4-oxo-3,4-dihydroquinazolin-2-yl)(cyclopropyl)methyl)amino)pyrimidine-5-carbonitrile] | 13 nM | 570 nM | 2 nM
CS(=O)(=O)CCCn1c([C@@H](Nc2nc(N)nc(N)c2C#N)C2CC2)nc2c(Cl)ccc(Cl)c2c1=O [Compound 119, (S)-2,4-diamino-6-((cyclopropyl(5,8-dichloro-3-(3-(methylsulfonyl)propyl)-4-oxo-3,4-dihydroquinazolin-2-yl)methyl)amino)pyrimidine-5-carbonitrile] | 8 nM | 1100 nM | 2 nM
CS(=O)(=O)CCCn1c([C@@H](Nc2nc(N)nc(N)c2C#N)C2CC2)nc2c(Cl)cc(F)cc2c1=O [Compound 120, (S)-2,4-diamino-6-(((8-chloro-6-fluoro-3-(3-(methylsulfonyl)propyl)-4-oxo-3,4-dihydroquinazolin-2-yl)(cyclopropyl)methyl)amino)pyrimidine-5-carbonitrile] | 30 nM | 1900 nM | 8 nM
N#Cc1c(N)nc(N)nc1N[C@H](c1nc2c(Cl)cc(F)cc2c(=O)n1CCCC(N)=O)C1CC1 [Compound 121, (S)-4-(8-chloro-2-(cyclopropyl((2,6-diamino-5-cyanopyrimidin-4-yl)amino)methyl)-6-fluoro-4-oxoquinazolin-3(4H)-yl)butanamide] | 9 nM | 760 nM | 2 nM
CS(=O)(=O)CCCCn1c([C@@H](Nc2nc(N)nc(N)c2C#N)C2CC2)nc2cccc(Cl)c2c1=O [Compound 122, (S)-2,4-diamino-6-(((5-chloro-3-(4-(methylsulfonyl)butyl)-4-oxo-3,4-dihydroquinazolin-2-yl)(cyclopropyl)methyl)amino)pyrimidine-5-carbonitrile] | 23 nM | 120 nM | 0.7 nM
C[C@H](Nc1nc(N)nc(N)c1C#N)c1nc2cccc(Cl)c2c(=O)n1C[C@H]1CCNC1 [Compound 125, 2,4-diamino-6-(((S)-1-(5-chloro-4-oxo-3-((S)-pyrrolidin-3-ylmethyl)-3,4-dihydroquinazolin-2-yl)ethyl)amino)pyrimidine-5-carbonitrile] | 49 nM | 2300 nM | 3 nM
